Earlier results in patent US6403361B1, “Enzymatic method for modification of recombinant polypeptides” (Restoragen, Inc., priority 1993, dated 2002).
Like-named read-outs stand apart in the source and are kept apart here.

What was measured:
Adenosine deaminase = biological target: T1, Adenosine deaminase (Homo sapiens, UniProt P00813); conditions: E is times ten to the negative exponent
T1 sequence (P00813 1-363): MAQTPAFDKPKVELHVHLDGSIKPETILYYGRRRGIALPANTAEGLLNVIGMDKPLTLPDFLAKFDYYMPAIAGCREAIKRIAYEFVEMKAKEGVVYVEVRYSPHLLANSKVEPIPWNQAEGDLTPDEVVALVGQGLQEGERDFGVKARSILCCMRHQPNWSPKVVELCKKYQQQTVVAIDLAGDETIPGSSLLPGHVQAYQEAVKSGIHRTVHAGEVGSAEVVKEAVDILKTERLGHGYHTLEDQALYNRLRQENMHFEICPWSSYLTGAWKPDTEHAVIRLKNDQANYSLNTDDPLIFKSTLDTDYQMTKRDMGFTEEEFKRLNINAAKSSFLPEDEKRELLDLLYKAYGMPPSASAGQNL

Cholesterol esterase = biological target: T2, Cholesterol esterase (Homo sapiens, UniProt P19835); conditions: Ref. 8 (Sutton et al., BBRC, 134, 386-392 (1986)); E is times ten to the negative exponent
T2 sequence (P19835 21-753): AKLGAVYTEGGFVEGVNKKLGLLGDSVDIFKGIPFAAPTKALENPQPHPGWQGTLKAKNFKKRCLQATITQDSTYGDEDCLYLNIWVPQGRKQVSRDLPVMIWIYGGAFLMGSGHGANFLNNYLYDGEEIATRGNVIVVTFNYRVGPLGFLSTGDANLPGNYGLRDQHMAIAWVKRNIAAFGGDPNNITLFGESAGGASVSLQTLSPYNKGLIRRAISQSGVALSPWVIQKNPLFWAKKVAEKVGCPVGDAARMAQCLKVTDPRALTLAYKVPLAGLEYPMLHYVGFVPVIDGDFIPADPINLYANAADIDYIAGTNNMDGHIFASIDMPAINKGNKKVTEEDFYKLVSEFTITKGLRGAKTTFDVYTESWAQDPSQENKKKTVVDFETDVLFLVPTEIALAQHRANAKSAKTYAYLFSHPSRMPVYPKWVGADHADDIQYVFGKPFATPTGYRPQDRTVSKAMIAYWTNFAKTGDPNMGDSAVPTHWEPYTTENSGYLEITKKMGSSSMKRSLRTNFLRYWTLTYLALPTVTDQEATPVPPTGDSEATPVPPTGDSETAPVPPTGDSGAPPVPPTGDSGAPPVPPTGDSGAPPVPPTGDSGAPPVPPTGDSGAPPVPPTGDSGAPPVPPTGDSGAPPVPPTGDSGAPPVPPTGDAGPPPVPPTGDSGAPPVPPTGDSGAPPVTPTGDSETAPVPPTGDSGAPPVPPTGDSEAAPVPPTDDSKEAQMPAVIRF

OC[C@H]1O[C@@H](n2cnc3c2N=CNC[C@H]3O)[C@H](O)[C@@H]1O [Coformycin]
Kd (Adenosine deaminase; Ref. 1 (Cha et al., Biochemical Pharm., 24, 2187-2197)): < 0.12 nM

CCCCCCC(C(C)O)n1cnc2c(N)ncnc21 (stereo not drawn) [erythro-9-(2-hydroxy-3 nonyl) adenine]
Kd (Adenosine deaminase; Ref. 2 (Agarwal et al., Biochemical Pharm., 26, 354-367 (1977))): 1.6 nM

Borinic acid
Kd (Cholesterol esterase): 0.1 nM
